What was measured:
[1] = system: pulmonary fibrosis after lung injury; details: cited from earlier work; for subsequent pulmonary fibrosis: after BLM, prior work; for PF in mice after single (1×) or multi-hit (8×) BLM-, Ad-TGF-β1-, silica- and thoracic radiation-induced lung injury: prior work of the inventor's group
[2] = system: AECs / lung epithelial cells (LECs); details: cited from earlier work; for BLM-induced apoptosis of lung epithelial cells (LECs): in vitro and in vivo, prior work; for AEC apoptosis: prior work of the inventor's group
[3] = system: fLfs; details: prior work of the inventor's group; cited from earlier work
[4] = system: BLM-induced pulmonary fibrosis; assay: BLM-induced established pulmonary fibrosis in mice, treatment d14-d21; format: in vivo; details: for BLM-induced pulmonary fibrosis (overall): mice, 1.0 U/kg BLM IT, peptide 10 mg/kg/d IP daily for 7 days starting d14; for lung compliance / lung elastance: flexiVent; for whole lung total hydroxyproline: lung homogenates
Procedure: FIGS. 9A-9O. M9 peptide and protein mitigated BLM-induced pulmonary fibrosis. Mice exposed to saline or 1.0 U/kg BLM by intratracheal instillation were treated with or without M9 peptide HGHVDPVKTPKI (SEQ ID NO: 4) (10 mg/kg/d) and M9 protein (SEQ ID NO: 1) 7.5 mg/kg/d) via IP injection daily for 7 days starting d14 after BLM injury. FIG. 9A: Representative micro-CT images at d21 after BLM exposure. FIG. 9B: Lung volumes were measured by quantitative-CT renditions. Lung compliance (FIG. 9C) and elastance (FIG. 9D) were measured using a flexiVent system. Lung weights (FIG. 9E) and body weights (FIG. 9F) are presented as bar graphs. Lung homogenates were tested for hydroxyproline (FIG. 9G), soluble collagen (FIG. 9H), pro-fibrogenic marker proteins (FIG. 9I) and mRNAs (FIG. 9J). Bars indicate mean±SD. Statistical significance (*P<0.05, **P<0.01, ***P<0.001 and ****P<0.0001) was assessed by one-way ANOVA with Turkey's multiple comparison. fLfs isolated from IPF lungs treated with PBS or recombinant full length M9 (rM9^FL) protein (2 μg/ml) for 48 h in vitro were tested for pro-fibrogenic proteins (FIG. 9L). fLfs (from IPF lungs) treated with PBS or extracellular domain of rM9^FL protein (rM9^ECD) as in FIG. 9L were tested for pro-fibrogenic proteins (FIG. 9N). The survival the mice treated with rM9^FL is shown FIG. 9M.
FIGS. 10A-10K. UNC5A (“U5”) peptide/protein mitigated BLM-induced pulmonary fibrosis. Mice exposed to saline or 1.0 U/kg BLM by intratracheal instillation were treated with or without U5 peptide (50 residues, SEQ ID NO: 7) (10 mg/kg/d) and full length U5 protein (SEQ ID NO: 5) (7.5 mg/kg/d) via IP injection daily for 7 days starting d14 after BLM injury. FIG. 10A: Representative micro-CT images at d21 after BLM exposure. FIG. 10B: Lung volumes were measured by quantitative-CT renditions. Lung compliance (FIG. 10C) and elastance (FIG. 10D) were measured using a flexiVent system. Lung weights (FIG. 10E) and body weights (FIG. 10F) are presented as bar graphs. Lung homogenates were tested for hydroxyproline (FIG. 10G), soluble collagen (FIG. 10H), pro-fibrogenic marker proteins (FIG. 10I) and mRNAs (FIG. 10J). Bars indicate mean±SD. Statistical significance (*P<0.05, **P<0.01, ***P<0.001 and ****P<0.0001) was assessed by one-way ANOVA with Turkey's multiple comparison.
FIGS. 11A-11K. ALG5 (“A5”) protein mitigated BLM-induced pulmonary fibrosis. Mice exposed to saline or 1.0 U/kg BLM by intratracheal instillation were treated with or without A5 protein (SEQ ID NO: 9) (7.5 mg/kg/d) via IP injection daily for 7 days starting d14 after BLM injury. FIG. 11A: Representative micro-CT images at d21 after BLM exposure. FIG. 11B: Lung volumes were measured by quantitative-CT renditions. Lung compliance (FIG. 11C) and elastance (FIG. 11D) were measured using a flexiVent system. Lung weights (FIG. 11E) and body weights (FIG. 11F) are presented as bar graphs. Lung homogenates were tested for hydroxyproline (FIG. 11G), soluble collagen (FIG. 11H), pro-fibrogenic marker proteins (FIG. 11I) and mRNAs (FIG. 11J). Bars indicate mean±SD. *P<0.05, **P<0.01, ***P<0.001 and ****P<0.0001 were obtained by one-way ANOVA with Turkey's multiple comparison.
FIGS. 12A-12E. WT mice with BLM-PF were treated with or without rM9^ECD (1.5 mg/kg) via intratracheal (IT) instillation daily for 7 d starting d 14 after BLM. Survival (FIG. 12A), body weights (FIG. 12B), lung volumes (FIG. 12C) and lung weights (FIG. 12D) were measured on d 21 post-BLM. Lung homogenates were tested for soluble collagen (FIG. 12E).
FIGS. 13A-13B. FIG. 13A: fLfs (IPF) treated with PBS or M9^mAb (2 μg/ml) or control IgG, tested for pro-fibrogenic proteins (i) and mRNAs (ii). FIG. 13B: WT mice with BLM-PF were left untreated, or intraperitoneal (IP) injected with control IgG or M9^mAb (2.5 mg/kg) daily for 7 d starting 14 d after IT BLM. Body weights (i) and total lung hydroxyproline (ii), and soluble collagen (iii) were measured. […]

[5] = peptide 10 mg/kg/d IP, 7 days starting d14 after BLM
[6] = peptide 10 mg/kg/d IP, 7 days starting d14 after BLM, d21

For “DGIWKASFTTFTVTKYWFYR (listed as Homo sapiens) [CSP]”, which subsequent pulmonary fibrosis [1] is on record?
The subsequent pulmonary fibrosis was “prevented”.

What about the “PF in mice after single (1×) or multi-hit (8×) BLM-, Ad-TGF-β1-, silica- and thoracic radiation-induced lung injury” value [1] of the same substance?
Its value is “blocked”.

What about the “BLM-induced apoptosis of lung epithelial cells (LECs)” value [2] of the same substance?
Its value is “protected”.

What about the AEC apoptosis [2] of the same substance?
Its AEC apoptosis is “inhibited”.

And the fLf expansion [3]?
The fLf expansion was “inhibited”.

With FTTFTVT (listed as Homo sapiens) [CSP7] as the substance, how does the tolerability in mice ([1]; prior work (Marudamuthu et al., 2019)) read?
Its tolerability in mice is “well-tolerated”.

What about the “PF in mice after single (1×) or multi-hit (8×) BLM-, Ad-TGF-β1-, silica- and thoracic radiation-induced lung injury” value [1] of the same substance?
The value was “blocked”.

What about the AEC apoptosis [2] of the same substance?
Its AEC apoptosis is “inhibited”.

And the fLf expansion [3]?
The fLf expansion was “inhibited”.

Which “BLM-induced pulmonary fibrosis (overall)” value ([4]; d21) does the source give for “HGHVDPVKTPKI (listed as Homo sapiens) [M9 peptide]” here?
The value was “mitigated”.

And the “BLM-induced pulmonary fibrosis (overall)” value ([4]; d21, listed as M9 12-Mer Peptide)?
The value was “Mitigated”.

And the “BLM-induced pulmonary fibrosis (overall)” value ([4]; d21, listed as SEQ ID NO: 4)?
The value was “resolved”.

What about the “BLM-induced fibrogenic marker proteins (Col1, FN, TN-C, α-SMA) in whole lung homogenates” value [4, 5] of the same substance?
Its value is “marked inhibition”.

What about the body weight [4, 5] of the same substance?
Its body weight is “improvement”.

And the “collagen and other extracellular matrix deposits (Trichrome staining of lung sections)” value [4, 5]?
Its value is “remarkable reduction”.

What about the “fibrogenic marker transcripts in whole lung homogenates” value [4, 5] of the same substance?
Its value is “marked inhibition”.

What about the lung weight [4, 5] of the same substance?
Its lung weight is “reduction”.

What about the lung compliance [4, 6] of the same substance?
Its lung compliance is “improved”.

And the lung elastance [4, 6]?
Its lung elastance is “improved”.

What about the “whole lung total hydroxyproline” value [4, 5] of the same substance?
The value was “significant inhibition”.

What about the lung volume ([4]; peptide 10 mg/kg/d IP, 7 days starting d14 after BLM, quantitative CT, d21) of the same substance?
The lung volume was “improved”.

For “NYHYLESSMTALYTLGH (listed as Homo sapiens) [PP-2]”, which subsequent pulmonary fibrosis [1] is on record?
Its subsequent pulmonary fibrosis is “prevented”.

And the “BLM-induced apoptosis of lung epithelial cells (LECs)” value [2]?
The value was “protected”.

With “VYCRKKEGLDSDVADSSILTSGFQPVSIKPSKADNPHLLTIQPDLSTTTT (VYCRKKEGLDSDVADSSILTSGFQPVSIKPSKADNPHLLTIQPDLSTTTT; listed as Homo sapiens) [U5A peptide]” as the substance, how does the “BLM-induced pulmonary fibrosis (overall)” value ([4]; d21, listed as U5A 50-Mer Peptide) read?
Its value is “Mitigated”.

And the “BLM-induced pulmonary fibrosis (overall)” value ([4]; d21, listed as U5 peptide)?
Its value is “mitigated”.

And the “BLM-induced fibrogenic marker proteins (Col1, FN, TN-C, α-SMA) in whole lung homogenates” value [4, 5]?
Its value is “inhibition”.

And the body weight [4, 5]?
The body weight was “improvement”.

And the “collagen and other extracellular matrix deposits (Trichrome staining of lung sections)” value [4, 5]?
The value was “reduction”.

And the “fibrogenic marker transcripts in whole lung homogenates” value [4, 5]?
Its value is “inhibition”.

And the lung weight [4, 5]?
The lung weight was “reduction”.

And the lung compliance [4, 6]?
Its lung compliance is “improved”.

And the lung elastance [4, 6]?
Its lung elastance is “improved”.

And the “whole lung total hydroxyproline” value [4, 5]?
Its value is “reduction”.

From patent publication US12173061B2, “Compositions and methods for treatment of chronic lung diseases” (Board of Regents, The University of Texas System, priority 2021, dated 2024)
